Results taken from PMC9781003, “Two Antenna-Enriched Odorant Binding Proteins in Dioryctria abietella Tuned to General Odorants and Insecticides” (Insects, 2022).
Like-named read-outs stand apart in the source and are kept apart here.

Key:
[1] = target: T1, DabiOBP5 (Dioryctria abietella, UniProt A0A8E6HS34); experiment: Competitive fluorescence binding assay with 1-NPN probe, recombinant DabiOBP5; conditions: for inhibition at 20 µM / OBP5 F.D. (%) fluorescence displacement percent: ligand at 20 μM, DabiOBP5/1-NPN each 2 μM, Tris-HCl pH 7.4, NB = no binding; for inhibition at 20 µM: read-out: OBP5 F.D. (%) fluorescence displacement percent
T1 sequence (A0A8E6HS34 19-139): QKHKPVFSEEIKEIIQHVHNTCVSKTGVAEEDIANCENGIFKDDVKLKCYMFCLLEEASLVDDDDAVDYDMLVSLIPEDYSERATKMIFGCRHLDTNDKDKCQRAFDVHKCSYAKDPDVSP
From the text: In the binding assays, we selected 100 compounds derived from host/non-host plants and man-made insecticides widely used for the control of lepidopteran pests, representing 88 general odorants (21 esters, 21 alcohols, 14 aldehydes, 13 alkenes, seven ketones, 11 alkanes and one acid) and 12 insecticides. These compounds and N-phenyl-1-naphthylamine (1-NPN) were purchased from Aladdin and Sigma-Aldrich, with the highest available purity. […] The concentrations of the work solution for each ligand and 1-NPN were set at 1 mM.
In order to measure the binding properties of the DabiOBPs to the 100 ligands, competitive binding assays were performed on a RF5301PC fluorescence spectrophotometer (Shimadzu, Japan). The concentrations of DabiOBPs and the fluorescent probe 1-NPN were set at 2 μM. […] Accordingly, binding constants (K1-NPN) of the DabiOBPs and 1-NPN were calculated using GraphPad Prism 7 (GraphPad Software Inc., San Diego, CA). […] For the ligands replacing over a half of 1-NPN fluorescence (50%) at 20 μM, three replicates were performed. The excitation wavelength was set at 337 nm and the emission peaks were recorded at around 400 nm.

[2] = tested on: DabiOBP14; assay type: binding, Dioryctria abietella
Procedure: In the binding assays, we selected 100 compounds derived from host/non-host plants and man-made insecticides widely used for the control of lepidopteran pests, representing 88 general odorants (21 esters, 21 alcohols, 14 aldehydes, 13 alkenes, seven ketones, 11 alkanes and one acid) and 12 insecticides. These compounds and N-phenyl-1-naphthylamine (1-NPN) were purchased from Aladdin and Sigma-Aldrich, with the highest available purity. They were first diluted into 100 mM, using methanol (HPLC purity grade, ≥99.9%) as a stock solution. The concentrations of the work solution for each ligand and 1-NPN were set at 1 mM.
In order to measure the binding properties of the DabiOBPs to the 100 ligands, competitive binding assays were performed on a RF5301PC fluorescence spectrophotometer (Shimadzu, Japan). The concentrations of DabiOBPs and the fluorescent probe 1-NPN were set at 2 μM. The binding of DabiOBPs to 1-NPN in 20 mM Tris-HCl buffer (pH 7.4) was measured by adding final concentrations of 2–16 μM 1-NPN. Accordingly, binding constants (K1-NPN) of the DabiOBPs and 1-NPN were calculated using GraphPad Prism 7 (GraphPad Software Inc., San Diego, CA). The binding of the DabiOBPs to various ligands was conducted by adding different concentrations of ligands (2, 4, 6, 8, 12, 16 and 20 μM) into the DabiOBP5/1-NPN (each 2 μM) or DabiOBP14/1-NPN (each 2 μM) mixtures. For the ligands replacing over a half of 1-NPN fluorescence (50%) at 20 μM, three replicates were performed. The excitation wavelength was set at 337 nm and the emission peaks were recorded at around 400 nm. The dissociation constants (Ki) of the tested ligands to DabiOBPs were computed, using the equation: Ki = [IC50]/(1 + [1-NPN]/K1-NPN), where [1-NPN] was the free concentration of 1-NPN and IC50 was the concentration of ligands replacing 50% of 1-NPN fluorescence.

[3] = ligand at 20 μM, DabiOBP14/1-NPN each 2 μM, Tris-HCl pH 7.4, NB = no binding

SMILES	inhibition at 20 µM [1] [%]	OBP14 F.D. (%) fluorescence displacement percent [2, 3] [%]	further results
CC(C)=CCCC(C)=CC=O (mixture of isomers) [Citral]	39	32.25	
C=CC(C)(O)CCC=C(C)CCC=C(C)C (mixture of isomers) [Nerolidol]	34.6	37.52	
CCCCCCCCCCO [1-Decanol]	31.4	31.32	
CCCCCCCCCCCCO [1-Dodecanol]	38.7	28.55	
CCCCCCCO [1-Heptanol]	39.3	39.10	
CCCCCCCCCCCCCCCCO [1-Hexadecanol]	37	31.97	
CCCCCCO [1-Hexanol]	38.9	40.27	
c1ccc(Nc2cccc3ccccc23)cc1 [1-NPN, N-phenyl-1-naphthylamine]			Kd ([1]; 2 μM protein, 2–16 μM 1-NPN, 20 mM Tris-HCl pH 7.4, read-out: K1-NPN binding constant of DabiOBP5 and 1-NPN): 7.49 ± 0.69 µM; Kd ([2]; 2 μM protein, 2–16 μM 1-NPN, 20 mM Tris-HCl pH 7.4, read-out: K1-NPN binding constant of DabiOBP14 and 1-NPN): 4.5 ± 0.42 µM
CCCCCCCCCO [1-Nonanol]	39.6	29.98	
CCCCCCCCO [1-Octanol]	35	35.51	
CCCCCCCCCCCO [1-Undecanol]	37.7		
C=CCCCCCCCCC [1-Undecene]	17.4		
CCCCCC(C)O (centres unmarked) [2-Heptanol]	13.9	24.86	
CCCCCC(C)=O [2-Heptanone]	36.5	33.53	
CCCCC(C)=O [2-Hexanone]	43.1	27.57	
CCC(C)CO (centres unmarked) [2-Methyl-1-butanol]	36	27.78	
CCCCCCCCCCCC(C)=O [2-Tridecanone]	35.6	32.61	
CC1=CCC2C(C1)C2(C)C (centres unmarked) [3-Carene]	41.6	29.92	

SMILES	inhibition at 20 µM [1] [%]	OBP14 F.D. (%) fluorescence displacement percent [2, 3] [%]	further results
CCCC(=O)CC [3-Hexanone]	25.3	36.58	
CC(C)=CCO [3-Methyl-2-buten-1-ol]	37	34.58	
CCCCC=CCCO [3-Octenol]	25.1	31.31	
CC(C)=CCCC(C)O (centres unmarked) [6-Methyl-5-hepten-2-ol]	41.4	33.49	
CC(=O)CCC=C(C)C [6-Methyl-5-hepten-2-one]	40.3	34.39	
CC(=O)c1ccccc1 [Acetophenone]	38.8	36.22	
CCCCCOC(C)=O [Amyl acetate]		25.00	OBP5 F.D. (%) fluorescence displacement percent [1]: 26.33%
O=Cc1ccccc1 [Benzaldehyde]	36.8	38.35	
O=C(OCc1ccccc1)c1ccccc1 [Benzyl benzoate]	47.8	49.39	
CCCCOC(C)=O [Butyl acetate]	31.6		OBP14 F.D. (%) fluorescence displacement percent ([2]; pH 7.4): 0.16%
O=C(NC(=O)c1ccccc1Cl)Nc1ccc(Cl)cc1 [Chlorbenzuron]		47.43	OBP5 F.D. (%) fluorescence displacement percent [1]: 39.11%
CCCCCCCCCC [Decane]	20.2		
CCCCCCCCC [Nonane]	22.2		
CCCCCCCC [Octane]	27.9		
CCCCCCCCCCCCC [Tridecane]	5.52		
C/C1=C\CC/C(C)=C/CC(C)(C)/C=C/C1 [α-Caryophyllene]			OBP5 F.D. (%) fluorescence displacement percent [1]: 15.42%
C=C1CC/C=C(\C)CC[C@@H]2[C@@H]1CC2(C)C [β-Caryophyllene]	16.3		
